Measurements published in ChEMBL document CHEMBL1201862, “PubChem BioAssay data set” (2004).
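Grown in 96-well plates, cells were treated for 48 hours with each compound at five concentrations. Insufficient inhibition: endpoint recorded as highest concentration tested. The concentration for 50% growth inhibition is given as GI50.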 Activity calls are given as the source filed them. Cut-off read from the data, not from the text of the source: active = GI50 up to about 1.1 µM and inactive = higher.

How the values were obtained:
Assay in all cases: NCI anticancer screen, dose series, 48 h
A549 = test system: A549
COLO 205 = test system: COLO 205
EKVX = test system: EKVX
HCT-116 = test system: HCT-116
HCT-15 = test system: HCT-15
HL-60 = test system: HL-60
K562 = test system: K562
KM12 = test system: KM12
LOX IMVI = test system: LOX IMVI
M14 = test system: M14
MCF7 = test system: MCF7
MDA-MB-231 = test system: MDA-MB-231
NCI-H226 = test system: NCI-H226
NCI-H460 = test system: NCI-H460
NCI-H522 = test system: NCI-H522
PC-3 = test system: PC-3
RXF 393 = test system: RXF 393
SNB-19 = test system: SNB-19
SR = test system: SR
ACHN = test system: ACHN

Row | SMILES | GI50 (A549) | GI50 (COLO 205) | GI50 (EKVX) | GI50 (HCT-116) | GI50 (HCT-15) | GI50 (HL-60) | GI50 (K562) | GI50 (KM12) | GI50 (LOX IMVI) | GI50 (M14) | GI50 (MCF7) | GI50 (MDA-MB-231) | GI50 (NCI-H226) | GI50 (NCI-H460) | GI50 (NCI-H522) | GI50 (PC-3) | GI50 (RXF 393) | GI50 (SNB-19) | GI50 (SR) | GI50 (ACHN)
1 | COc1ccc(-c2cc(O)c3nc4ccccc4n3c2)cc1 | > 100 µM (inactive) | > 100 µM (inactive) | > 100 µM (inactive) | > 100 µM (inactive) | > 100 µM | > 100 µM (inactive) | > 100 µM (inactive) | > 100 µM (inactive) | > 100 µM (inactive) | > 100 µM (inactive) | > 100 µM (inactive) | > 100 µM (inactive) | > 100 µM (inactive) | > 100 µM (inactive) | > 100 µM (inactive) | > 100 µM (inactive) | > 100 µM (inactive) | > 100 µM (inactive) | > 100 µM (inactive) | 
2 | Cc1ccc(C(=C2Sc3ccccc3S2)C(=C2Sc3ccccc3S2)c2ccc(C)s2)s1 | > 100 µM (inactive) | > 100 µM (inactive) | > 100 µM (inactive) | > 100 µM (inactive) | > 100 µM | 13.6 µM (inactive) | > 100 µM (inactive) | > 100 µM (inactive) |  | 76.2 µM (inactive) | > 100 µM (inactive) | 42.8 µM (inactive) | > 100 µM (inactive) |  | > 100 µM (inactive) | > 100 µM (inactive) | > 100 µM (inactive) | > 100 µM (inactive) | 47.5 µM (inactive) | > 100 µM (inactive)
3 | CC1(C)Oc2ccc3c(=O)cc(-c4ccccc4)oc3c2C1C(=O)O (stereo not drawn) | > 100 µM (inactive) | > 100 µM (inactive) | > 100 µM (inactive) | > 100 µM (inactive) | > 100 µM | > 100 µM (inactive) | > 100 µM (inactive) |  |  | > 100 µM (inactive) | > 100 µM (inactive) | > 100 µM (inactive) | > 100 µM (inactive) |  | > 100 µM (inactive) | > 100 µM (inactive) | > 100 µM (inactive) |  | > 100 µM (inactive) | 
4 | COc1cc2oc3c(c(=O)c2c(O)c1/C=C/C(C)C)CCC(C)(C)Oc1cc(O)ccc1-3 | 12 µM (inactive) | 16.4 µM (inactive) | 18.1 µM (inactive) | 18.2 µM (inactive) | 10.2 µM | 13.1 µM (inactive) | 4.32 µM (inactive) | 7.41 µM (inactive) | 9.14 µM (inactive) | 10.8 µM (inactive) | 13.3 µM (inactive) | 16.6 µM (inactive) |  | 8.41 µM (inactive) | 18.1 µM (inactive) | 15.2 µM (inactive) | 11.5 µM (inactive) | 16.1 µM (inactive) | 4.78 µM (inactive) | 14.1 µM (inactive)
5 | O=S(=O)(O)CCCC1S(=O)(=O)OCCOS1(=O)=O |  | > 100 µM (inactive) | > 100 µM (inactive) | > 100 µM (inactive) | > 100 µM | > 100 µM (inactive) |  | > 100 µM (inactive) | > 100 µM (inactive) | > 100 µM (inactive) | > 100 µM (inactive) | > 100 µM (inactive) | > 100 µM (inactive) | > 100 µM (inactive) | > 100 µM (inactive) | > 100 µM (inactive) | > 100 µM (inactive) | > 100 µM (inactive) | > 100 µM (inactive) | > 100 µM (inactive)
6 | CC(O[Si](C)(C)C(C)(C)C)[C@H](NC(=O)OCC(Cl)(Cl)Cl)C(=O)O (stereo partly drawn) | > 100 µM (inactive) | > 100 µM (inactive) | > 100 µM (inactive) | > 100 µM (inactive) | > 100 µM | > 100 µM (inactive) | > 100 µM (inactive) | 56 µM (inactive) | > 10 µM (inactive) |  | > 100 µM (inactive) | > 100 µM (inactive) | > 100 µM (inactive) | > 100 µM (inactive) | 78 µM (inactive) | > 100 µM (inactive) | > 100 µM (inactive) | > 100 µM (inactive) | > 100 µM (inactive) | 55.1 µM (inactive)
